Data from patent publication EP4806435A1, “DIHYDROCHROMENE-DERIVATIVE-CONTAINING THERAPEUTIC AGENT FOR CANCER” (Sumitomo Pharma Co., Ltd., priority 2023, dated 2025).
Where two headings read alike, the source gives them in different places.

Assay: Phase 1 clinical trial: plasma pharmacokinetics
Format: in vivo, human
Details: human, plasma, oral; for half-life: read-out: Effective T1/2 (converted); for AUC: tau = 24 hours
Method: Summary statistics based on preliminary data were obtained for the pharmacokinetics of Compound 1 in patients receiving once-daily doses ranging from 20 mg to 240 mg (Table 5). The mean plasma concentration-time curves of Compound 1 in the once-daily dose groups ranging from 20 mg to 240 mg are shown in Figure 11. In this study, one cycle consists of 28 days, and Cycle 1 Day 1 refers to Day 1 of the first cycle. […] Accumulation was observed after repeated administration. […] Based on these accumulation ratios, the half-life of Compound 1 was estimated to be approximately 4 days. Based on the currently available data, plasma concentrations are considered to have reached steady state by Day 15.
Summary statistics based on preliminary data were obtained for the pharmacokinetics of Compound 1 in patients in the 20 mg QD, 40 mg QD, 80 mg QD, 120 mg QD, 180 mg QD, 240 mg QD, 360 mg QD, and 480 mg daily (240 mg BID) dose groups (Table 6). The mean plasma concentration-time curves of Compound 1 in the 20 mg QD to 480 mg daily (240 mg BID) dose groups are shown in Figure 12 (in Figure 12, Compound 1 is denoted as "DSP-0390"). In this study, one cycle consists of 28 days, and Cycle 1 Day 1 refers to Day 1 of the first cycle. […] The median Tmax ranged from 2 to 8 hours. Accumulation was observed after repeated administration, and assuming linearity based on the observed accumulation ratios, the estimated elimination half-life was considered to be on the order of several days (approximately 1 to 6 days) (data cut-off: March 2024).

CC1(C)Oc2cc(Cl)ccc2[C@@H]2OCC3(CCN(CCn4ccnc4)CC3)C[C@H]21 [Compound 1, (4'aR,10'bR)-8'-chloro-1-[2-(1H-imidazol-1-yl)ethyl]-5',5'-dimethyl-4'a,10'b-dihydro-2'H,4'H,5'H-spiro[piperidine-4,3'-pyrano[3,2-c][1]benzopyran] diphosphate]
Cmax (80 mg, Cycle 2 Day 1, 80 mg, QD, cut-off April 2023, read-out: Cmax (median)): 61 ng/mL
Tmax (80 mg, Cycle 2 Day 1, 80 mg, QD, cut-off April 2023, read-out: Tmax (mean)): 8 h
Tmax (80 mg, Cycle 2 Day 1, 80 mg, QD, cut-off April 2023, read-out: Tmax (median)): 8 h
half-life (120 mg, 120 mg QD, cut-off March 2024): 67.2 h
Cmax (120 mg, Cycle 1, Day 1, 120 mg QD, cut-off March 2024, read-out: Cmax): 44.2 ng/mL
Tmax (120 mg, Cycle 1, Day 1, 120 mg QD, cut-off March 2024, read-out: Tmax [a] median value): 4 h
AUC (120 mg, Cycle 1, Day 1, 120 mg QD, cut-off March 2024, read-out: AUCtau [b]): 577 ng·h/mL
AUC(0-t) (120 mg, Cycle 1 Day 1, 120 mg, QD, cut-off April 2023, read-out: AUC0-24 (geometric mean)): 544 ng·h/mL
AUC(0-t) (120 mg, Cycle 1 Day 1, 120 mg, QD, cut-off April 2023, read-out: AUC0-24 (mean)): 583 ng·h/mL
AUC(0-t) (120 mg, Cycle 1 Day 1, 120 mg, QD, cut-off April 2023, read-out: AUC0-24 (median)): 605 ng·h/mL
Cmax (120 mg, Cycle 1 Day 1, 120 mg, QD, cut-off April 2023, read-out: Cmax (geometric mean)): 40 ng/mL
Cmax (120 mg, Cycle 1 Day 1, 120 mg, QD, cut-off April 2023, read-out: Cmax (mean)): 44 ng/mL
Cmax (120 mg, Cycle 1 Day 1, 120 mg, QD, cut-off April 2023, read-out: Cmax (median)): 45 ng/mL
Tmax (120 mg, Cycle 1 Day 1, 120 mg, QD, cut-off April 2023, read-out: Tmax (mean)): 4 h
Tmax (120 mg, Cycle 1 Day 1, 120 mg, QD, cut-off April 2023, read-out: Tmax (median)): 4 h
Cmax (120 mg, Cycle 2, Day 1, 120 mg QD, cut-off March 2024, read-out: Cmax,ss): 156 ng/mL
Tmax (120 mg, Cycle 2, Day 1, 120 mg QD, cut-off March 2024, read-out: Tmax,ss [a] median value): 5 h
AUC (120 mg, Cycle 2, Day 1, 120 mg QD, cut-off March 2024, read-out: AUCtau,ss [b]): 2610 ng·h/mL
AUC(0-t) (120 mg, Cycle 2 Day 1, 120 mg, QD, cut-off April 2023, read-out: AUC0-24 (geometric mean)): 2420 ng·h/mL
AUC(0-t) (120 mg, Cycle 2 Day 1, 120 mg, QD, cut-off April 2023, read-out: AUC0-24 (mean)): 2630 ng·h/mL
AUC(0-t) (120 mg, Cycle 2 Day 1, 120 mg, QD, cut-off April 2023, read-out: AUC0-24 (median)): 2330 ng·h/mL
Cmax (120 mg, Cycle 2 Day 1, 120 mg, QD, cut-off April 2023, read-out: Cmax (geometric mean)): 140 ng/mL
Cmax (120 mg, Cycle 2 Day 1, 120 mg, QD, cut-off April 2023, read-out: Cmax (mean)): 156 ng/mL
Cmax (120 mg, Cycle 2 Day 1, 120 mg, QD, cut-off April 2023, read-out: Cmax (median)): 138 ng/mL
Tmax (120 mg, Cycle 2 Day 1, 120 mg, QD, cut-off April 2023, read-out: Tmax (mean)): 6 h
Tmax (120 mg, Cycle 2 Day 1, 120 mg, QD, cut-off April 2023, read-out: Tmax (median)): 5 h
half-life (180 mg, 180 mg QD, cut-off March 2024): 50.4 h
Cmax (180 mg, Cycle 1, Day 1, 180 mg QD, cut-off March 2024, read-out: Cmax): 114 ng/mL
Tmax (180 mg, Cycle 1, Day 1, 180 mg QD, cut-off March 2024, read-out: Tmax [a] median value): 6 h
AUC (180 mg, Cycle 1, Day 1, 180 mg QD, cut-off March 2024, read-out: AUCtau [b]): 1370 ng·h/mL
AUC(0-t) (180 mg, Cycle 1 Day 1, 180 mg, QD, cut-off April 2023, read-out: AUC0-24 (geometric mean)): 1060 ng·h/mL
AUC(0-t) (180 mg, Cycle 1 Day 1, 180 mg, QD, cut-off April 2023, read-out: AUC0-24 (mean)): 1420 ng·h/mL
AUC(0-t) (180 mg, Cycle 1 Day 1, 180 mg, QD, cut-off April 2023, read-out: AUC0-24 (median)): 1840 ng·h/mL
Cmax (180 mg, Cycle 1 Day 1, 180 mg, QD, cut-off April 2023, read-out: Cmax (geometric mean)): 73 ng/mL
Cmax (180 mg, Cycle 1 Day 1, 180 mg, QD, cut-off April 2023, read-out: Cmax (mean)): 101 ng/mL
Cmax (180 mg, Cycle 1 Day 1, 180 mg, QD, cut-off April 2023, read-out: Cmax (median)): 140 ng/mL
Tmax (180 mg, Cycle 1 Day 1, 180 mg, QD, cut-off April 2023, read-out: Tmax (mean)): 11 h
Tmax (180 mg, Cycle 1 Day 1, 180 mg, QD, cut-off April 2023, read-out: Tmax (median)): 6 h
Cmax (180 mg, Cycle 2, Day 1, 180 mg QD, cut-off March 2024, read-out: Cmax,ss): 215 ng/mL
Tmax (180 mg, Cycle 2, Day 1, 180 mg QD, cut-off March 2024, read-out: Tmax,ss [a] median value): 6 h
AUC (180 mg, Cycle 2, Day 1, 180 mg QD, n=3, cut-off March 2024, read-out: AUCtau,ss [b]): 4860 ng·h/mL
AUC(0-t) (180 mg, Cycle 2 Day 1, 180 mg, QD, N=1, cut-off April 2023, read-out: AUC0-24 (geometric mean)): 7260 ng·h/mL
AUC(0-t) (180 mg, Cycle 2 Day 1, 180 mg, QD, N=1, cut-off April 2023, read-out: AUC0-24 (mean)): 7260 ng·h/mL
AUC(0-t) (180 mg, Cycle 2 Day 1, 180 mg, QD, N=1, cut-off April 2023, read-out: AUC0-24 (median)): 7260 ng·h/mL
Cmax (180 mg, Cycle 2 Day 1, 180 mg, QD, cut-off April 2023, read-out: Cmax (geometric mean)): 281 ng/mL
Cmax (180 mg, Cycle 2 Day 1, 180 mg, QD, cut-off April 2023, read-out: Cmax (mean)): 287 ng/mL
Cmax (180 mg, Cycle 2 Day 1, 180 mg, QD, cut-off April 2023, read-out: Cmax (median)): 287 ng/mL
Tmax (180 mg, Cycle 2 Day 1, 180 mg, QD, cut-off April 2023, read-out: Tmax (mean)): 7 h
